Measured values reported in patent US20170218389A1, “METHODS AND COMPOSITIONS FOR STOMATA REGULATION, PLANT IMMUNITY, AND DROUGHT TOLERANCE” (priority 2016, published 2017).

Columns and labels:
AtNHR1B [1] = experiment: qRT-PCR of AtNHR1B expression in treated wild-type Col-0 plants; type: in vivo, Arabidopsis; conditions: Col-0, 12 hpt; ABA 10 μM, Flg22 20 μM
Protocol: (§1) Total RNA was purified from Arabidopsis leaves infiltrated with water (mock control), nonhost pathogen P. syringae pv. tabaci (Psta), or host pathogen P. syringae pv. maculicola (Psm). Total RNA was extracted using TRIzol (Invitrogen, NT) and 2 treated or inoculated leaves were pooled to represent one biological replicate. Total RNA was treated with DNase I (Invitrogen, NY), and 1 μg RNA was used to generate cDNA using Superscript III reverse transcriptase (Invitrogen, NY) and oligo d(T)15-20 primers. The cDNA (1:20) was then used for qRT-PCR using Power SYBR Green PCR master mix (Applied Biosystems, Foster City, Calif., USA) with an ABI Prism 7900 HT sequence detection system (Applied Biosystems). Primers specific for AtUBQ5 were used to normalize small differences in template amounts. Average Cycle Threshold (CT) values calculated using Sequence Detection Systems (version 2.2.2; Applied Biosystems) from duplicate samples were used to determine the fold expression relative to controls.
(§2) The gene expression patterns of AtNHR1A and AtNHR1B were determined by quantitative RT-PCR (qRT-PCR) after treating wild-type Col-0 plants with ABA, PAMPs (Flg22 and LPS), host (P. syringae pv. maculicola) and nonhost (P. syringae pv. tabaci) bacterial pathogens. […]

[2] = system: stomata of Arabidopsis epidermal peels; experiment: Stomatal closure / aperture in epidermal peels of NHR1A lines; type: cell-based; conditions: ABA 50 μM, flg22 20 μM
Protocol: FIG. 6A, FIG. 6B and FIG. 6C show ABA, PAMPs, host and nonhost bacterial pathogens induce AtNHR1A, AtNHR1B, and stomatal closure in an AtNHR1A-dependent manner. Histograms are depicted of AtNHR1A (FIG. 6A) and AtNHR1B (FIG. 6B) gene expression in Arabidopsis wild-type (Col-0) plants individually syringe-infiltrated with ABA (10 μM), Flg22 (20 μM), or LPS (100 ng), or flood-inoculated with the pathogens P. syringae pv. maculicola (Psm) and P. syringae pv. tabaci (Pst) at 1×10^4 cfu/mL. Bars indicate relative gene expression in comparison with the housekeeping gene UBQ5 and in relation to the 0 hr time-point. Different letters above bars indicate a statistically significant difference within a treatment (Student's t-test; p-value=0.05). Error bars represent the standard deviation of three biological replicates (three technical replicates for each biological replicate). Histograms are depicted quantifying stomatal aperture size from epidermal peels incubated with ABA (10 μM or 50 μM), Flg22 (20 μM), LPS (100 ng) and the nonhost pathogen Pst (1×10^6 cfu/mL), where aperture size was measured after 30 min for ABA, 1 hr for flg22 and 3 hrs for Pst (FIG. 6C). […]

AtNHR1A [3] = conditions: 4 hrs of 100 μM ABA, cited from earlier work
AtNHR1B [4] = conditions: both mesophyll cells and guard cells, 4 hrs of 100 μM ABA; cited from earlier work
[5] = system: stomata of Arabidopsis epidermal peels; experiment: Stomatal aperture in epidermal peels of Col-0 and AtGCN4 overexpressor lines; type: cell-based; conditions: both wild-type Col-0 and AtGCN4 overexpressor lines, after ABA treatment
Protocol: A representative histogram is depicted of stomatal aperture in Arabidopsis plant epidermal peels from wild-type Col-0 and GCN4-overexpressing (AtGCN4-OE6 and AtGCN4-OE16) lines measured 4 hours after treatment with MES buffer, COR, ABA, or COR+ABA.
Upon detection of PAMPs, stomata rapidly closes to prevent entry of the pathogen into apoplast (Melotto et al., 2006; Lee et al., 2013). […] Epidermal peels of AtGCN4 overexpressing lines were used to investigate whether stomata reopen after treatment with MES buffer (stomata opening buffer; control) or the host pathogen P. syringae pv. tomato DC3000. In wild-type Col-0, stomata reopened 3 hpi, while in the AtGCN4 overexpressor lines (AtGCN4-OE6 and AtGCN4-OE16), stomata remained closed even 4 hpi with P. syringae pv. tomato DC3000. Stomatal aperture was measured after ABA and coronatine treatments in order to investigate stomatal function in AtGCN4 overexpressor lines. ABA treatment induces stomatal closure in plants. After ABA treatment, the stomatal aperture size was reduced due to closing in both wild-type Col-0 and the AtGCN4 overexpressor lines.

AtNHR1A [6] = experiment: qRT-PCR of AtNHR1A expression in treated wild-type Col-0 plants; type: in vivo, Arabidopsis; conditions: Col-0, syringe-infiltrated ABA 10 μM, 6 hpt, relative to 0 hr
Protocol: as §1, §2

AtNHR1A [7] = experiment: GTPase activity of AtNHR1A (GTP hydrolysis, phosphate release); type: biochemical, Arabidopsis
Protocol: FIG. 12A, FIG. 12B and FIG. 12C show NHR1A has GTPase activity and interacts with JAZ9 in Arabidopsis. A representative histogram is depicted showing that nhr1a is less sensitive to JA than Col-0, where roots were measured 7 days after seeds of different Arabidopsis lines were grown in MS medium plates with or without 30 μM of MeJA (FIG. 12A). Data represents three independent experiments with at least 10 seedlings per line. Bars represent the mean±SD. Asterisks indicate statistical significance (Student's t-test; p-value <0.05). A representative scatter-plot and histogram are depicted showing that the GTPase activity of NHR1A is reduced by JAZ9 as measured by the rate of phosphate (Pi) release when NHR1A protein (1 μM) was pre-loaded with GTP (1 mM) and incubated without (FIG. 12B) or with 0.25-1 μM of JAZ9 (FIG. 12C). Data represents three independent experiments. Bars represent the mean±SE.
To further examine the role of AtNHR1A, GTPase activity of AtNHR1A was assessed using purified protein in a fluorescence-based assay (Willard et al., 2005). […] This finding was quantified by measuring the phosphate (Pi) release, using the ENZchek® phosphate assay kit (Invitrogen®), after incubating NHR1A with different concentrations of JAZ9. […]
GTP binding and hydrolysis by AtNHR1A protein was measured using GTP-BODIPY-FL in real-time fluorescence assays in the presence of absence of JAZ9 protein. […]

[8] = target: T1, COI1 (Coronatine Insensitive 1) (Arabidopsis, UniProt O04197 1-592, limits assumed); experiment: FAST (fast agro-mediated seedling transformation) assay in Arabidopsis Col-0 and nhr1a seedlings
T1 construct: Expressed in Arabidopsis seedlings in the FAST assay; construct not described
T1 sequence (looked up): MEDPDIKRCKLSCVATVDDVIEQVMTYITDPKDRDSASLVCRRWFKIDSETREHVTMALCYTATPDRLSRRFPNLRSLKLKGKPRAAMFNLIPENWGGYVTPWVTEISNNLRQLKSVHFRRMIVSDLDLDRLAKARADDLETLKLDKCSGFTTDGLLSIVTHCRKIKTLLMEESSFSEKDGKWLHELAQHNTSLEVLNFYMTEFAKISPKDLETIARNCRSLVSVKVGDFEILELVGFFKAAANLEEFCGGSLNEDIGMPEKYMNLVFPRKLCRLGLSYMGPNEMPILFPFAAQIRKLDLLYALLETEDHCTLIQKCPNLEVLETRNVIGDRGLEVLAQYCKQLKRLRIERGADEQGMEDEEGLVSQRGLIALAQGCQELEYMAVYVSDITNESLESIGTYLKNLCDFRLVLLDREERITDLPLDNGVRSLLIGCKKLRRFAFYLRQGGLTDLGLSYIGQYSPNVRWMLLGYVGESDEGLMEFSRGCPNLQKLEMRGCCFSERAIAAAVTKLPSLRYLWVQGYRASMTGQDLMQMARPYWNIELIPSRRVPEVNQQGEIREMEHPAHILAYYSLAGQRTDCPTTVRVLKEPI
From the text: Several JAZ proteins, such as JAZ1, JAZ2, JAZ3, JAZ6, JAZ9 and JAZ10, have been known to directly interact with COI1 in Arabidopsis (Chini et al., 2009; Melotto et al., 2008; Thines et al., 2007; Yan et al., 2009; Zhou et al., 2013). As shown above, NHR1A directly interacts with JAZ1, JAZ3, JAZ4, JAZ5, JAZ9 and JAZ12. Without being limited by theory, the present inventors hypothesize that the function of JAZ9 can be modified by binding NHR1A, and this may affect COI1-mediated signaling for stomatal closure. The fast agro-mediated seedling transformation (FAST) assay was used in Col-0 and nhr1a to investigate whether NHR1A was required for JAZ9-COI1 interaction.

## CC1=CC(=O)CC(C)(C)[C@@]1(O)/C=C/C(C)=C\C(=O)O [ABA, abscisic acid]
AtNHR1B [1]
  AtNHR1B expression: highly induced
[2]; Atnhr1a mutant
  Stomatal response: remained open
[2]; Col-0, NHR1A-OE and AtNHR1A-comp lines
  Stomatal response: closed stomata
AtNHR1A [3]; Col-0 guard cells
  AtNHR1A transcripts vs water-treated control: only a slight increase
AtNHR1A [3]; Col-0 mesophyll cells
  AtNHR1A transcript level vs water-treated control: approximately threefold
AtNHR1B [4]
  AtNHR1B transcripts vs water treatment: decreased
[5]
  Stomatal aperture size: reduced
AtNHR1A [6]
  AtNHR1A induction: twofold

B1: Jasmonate-Zim-Domain Protein 9 (JAZ9, At1g70700), full-length (other, Arabidopsis, UniProt Q8W4J8 1-267, looked up)
chain: MERDFLGLSDKQYLSNNVKHEVNDDAVEERGLSTKAAREWGKSKVFATSSFMPSSDFQEAKAFPGAYQWGSVSAANVFRRCQFGGAFQNATPLLLGGSVPLPTHPSLVPRVASSGSSPQLTIFYGGTISVFNDISPDKAQAIMLCAGNGLKGETGDSKPVREAERMYGKQIHNTAATSSSSATHTDNFSRCRDTPVAATNAMSMIESFNAAPRNMIPSVPQARKASLARFLEKRKERLMSAMPYKKMLLDLSTGESSGMNYSSTSPT
notes: GAL4 domain fusion in yeast two-hybrid, EYFP-half fusion in BiFC/FAST; the construct of the JAZ9 protein added to the GTPase assays is not described
AtNHR1A [7]; 0.75 μM and 1 μM of JAZ9, NHR1A 1 μM pre-loaded with GTP 1 mM
  Reduction in phosphate release compared with AtNHR1A without JAZ9: 20%
AtNHR1A [7]; in the presence of JAZ9
  Rate of GTP hydrolysis of AtNHR1A: significantly decreased
[8]
  binding result: binds
